The results in this text go back to US20260356830A1, “COMPOUNDS FOR MODULATING RET PROTEIN” (Bristol-Myers Squibb Company, priority 2022, published 2026).

Molecules are shown by their SMILES.

The experiment concerns the target T1, CCDC6-RET (Homo sapiens, UniProt P07949+Q16204+Q96SW2).
T1 construct: CCDC6 (natural N-terminal fusion partner, UniProt Q16204); endogenous in cells; host or cells: TPC-1 (parental, papillary thyroid carcinoma)
Put plainly: Cellular RET degradation, AlphaLISA, TPC-1 cell line. The settings on record: for Dmax: TPC1, human, 24 h, read-out: Cell Density TPC-1/CCDC6-RET Ymax %; for DC50: read-out: Cell Density TPC-1/CCDC6-RET DC50, half-maximal degradation concentration, TPC-1 (CCDC6-RET), 24 hrs. It is filed as cell-based. The essentials: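 Luminescent AlphaLISA read of RET abundance in lysates after 24 h compound exposure (37 °C, 2% FBS DMEM) of CCDC6-RET-bearing TPC-1 cells. % degradation relative to DMSO (high) and media (low) controls, fitted to 4-parameter logistic curve for DC50 and Ymax.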
(In general: Bead proximity is the source of the signal in Alpha formats.)

T1 sequence (Q16204+P07949 fused): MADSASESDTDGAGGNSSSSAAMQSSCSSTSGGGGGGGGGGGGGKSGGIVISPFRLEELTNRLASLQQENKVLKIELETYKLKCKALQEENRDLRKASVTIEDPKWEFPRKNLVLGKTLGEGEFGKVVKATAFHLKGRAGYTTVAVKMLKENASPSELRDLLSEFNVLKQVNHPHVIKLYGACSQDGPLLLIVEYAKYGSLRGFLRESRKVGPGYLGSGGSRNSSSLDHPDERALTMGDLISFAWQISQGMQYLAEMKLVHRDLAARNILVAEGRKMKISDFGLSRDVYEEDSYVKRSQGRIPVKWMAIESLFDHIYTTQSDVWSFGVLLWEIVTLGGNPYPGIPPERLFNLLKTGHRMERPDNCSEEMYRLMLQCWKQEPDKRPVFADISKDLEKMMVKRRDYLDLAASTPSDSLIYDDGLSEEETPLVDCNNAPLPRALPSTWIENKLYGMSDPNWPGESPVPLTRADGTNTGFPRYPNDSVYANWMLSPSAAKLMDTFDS
T1 sequence (Q96SW2 whole entry, the tested form may be a part): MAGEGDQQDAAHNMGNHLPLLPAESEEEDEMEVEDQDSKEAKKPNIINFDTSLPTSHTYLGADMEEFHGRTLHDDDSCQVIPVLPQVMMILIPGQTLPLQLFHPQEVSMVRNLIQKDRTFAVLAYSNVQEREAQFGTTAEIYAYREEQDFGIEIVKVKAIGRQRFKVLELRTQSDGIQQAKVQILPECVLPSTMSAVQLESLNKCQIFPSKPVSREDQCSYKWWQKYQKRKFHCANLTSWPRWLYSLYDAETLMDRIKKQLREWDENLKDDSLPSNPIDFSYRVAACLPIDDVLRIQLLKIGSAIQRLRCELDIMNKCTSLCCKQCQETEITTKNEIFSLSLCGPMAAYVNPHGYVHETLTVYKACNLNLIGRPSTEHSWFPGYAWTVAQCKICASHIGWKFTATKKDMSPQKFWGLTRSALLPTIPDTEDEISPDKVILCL
T1 sequence (Q16531 whole entry partner, the tested form may be a part): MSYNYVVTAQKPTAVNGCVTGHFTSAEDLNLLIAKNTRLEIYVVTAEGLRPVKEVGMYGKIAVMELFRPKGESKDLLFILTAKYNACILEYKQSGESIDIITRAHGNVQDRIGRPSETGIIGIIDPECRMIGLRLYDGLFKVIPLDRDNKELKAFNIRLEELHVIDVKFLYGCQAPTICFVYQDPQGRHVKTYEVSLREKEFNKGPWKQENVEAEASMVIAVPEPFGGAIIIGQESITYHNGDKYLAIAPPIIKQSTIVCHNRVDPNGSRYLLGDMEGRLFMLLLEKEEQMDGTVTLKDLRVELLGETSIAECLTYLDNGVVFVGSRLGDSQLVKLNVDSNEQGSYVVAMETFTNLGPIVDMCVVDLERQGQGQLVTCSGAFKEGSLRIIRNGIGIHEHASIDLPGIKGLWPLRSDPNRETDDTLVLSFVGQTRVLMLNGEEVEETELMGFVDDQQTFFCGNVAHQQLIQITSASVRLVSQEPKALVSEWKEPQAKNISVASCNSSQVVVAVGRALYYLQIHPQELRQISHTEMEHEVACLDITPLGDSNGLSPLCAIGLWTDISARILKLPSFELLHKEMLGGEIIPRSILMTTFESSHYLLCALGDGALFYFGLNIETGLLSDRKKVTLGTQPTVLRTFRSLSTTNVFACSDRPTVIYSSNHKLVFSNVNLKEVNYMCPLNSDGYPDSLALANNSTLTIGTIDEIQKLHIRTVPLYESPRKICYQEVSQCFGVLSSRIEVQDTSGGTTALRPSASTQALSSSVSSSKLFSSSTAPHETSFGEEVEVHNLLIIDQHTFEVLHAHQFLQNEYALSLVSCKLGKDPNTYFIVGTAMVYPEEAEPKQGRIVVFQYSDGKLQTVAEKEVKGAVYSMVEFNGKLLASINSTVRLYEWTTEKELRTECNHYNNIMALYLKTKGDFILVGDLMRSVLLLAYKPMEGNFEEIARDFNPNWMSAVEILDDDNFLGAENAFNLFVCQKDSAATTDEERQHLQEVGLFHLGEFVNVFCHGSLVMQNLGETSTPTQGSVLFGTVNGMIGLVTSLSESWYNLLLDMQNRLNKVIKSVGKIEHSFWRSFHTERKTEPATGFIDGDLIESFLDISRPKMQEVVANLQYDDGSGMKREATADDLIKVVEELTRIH

As for `CCOc1cc(-c2ccc(N3CCC(CN(C)C(=O)CCCCCCN4CCN(c5ccc6c(c5)C(=O)N(C5CCC(=O)NC5=O)C6)CC4)(NC(=O)c4cc(F)ccc4F)CC3)nc2)c2c(C#N)cnn2c1` (centres unmarked) [Example 143, N-[1-(5-{3-cyano-6-ethoxypyrazolo[1,5-a]pyridin-4-yl}pyridin-2-yl)-4-[(7-{4-[2-(2,6-dioxopiperidin-3-yl)-3-oxo-2,3-dihydro-1H-isoindol-5-yl]piperazin-1-yl}-N-methylheptanamido)methyl]piperidin-4-yl]-2,5-difluorobenzamide], the Dmax is above 90% and the DC50 lay within 2 to 10 nM.

As for `CCOc1cc(-c2ccc(N3CCC(CN4CCN(C5CN(C(=O)c6ccc7c(N8CCC(=O)NC8=O)nn(C)c7c6)C5)CC4)(NC(=O)c4cc(F)ccc4F)CC3)nc2)c2c(C#N)cnn2c1` [Example 64, N-[1-(5-{3-cyano-6-ethoxypyrazolo[1,5-a]pyridin-4-yl}pyridin-2-yl)-4-[(4-{1-[3-(2,4-dioxo-1,3-diazinan-1-yl)-1-methyl-1H-indazole-6-carbonyl]azetidin-3-yl}piperazin-1-yl)methyl]piperidin-4-yl]-2,5-difluorobenzamide], the Dmax was above 90% and the DC50 was below 2 nM.

With `CCOc1cc(-c2ccc(N3CCC(CN4CCC(N5CC(N6CCC(c7ccc8c(c7)C(=O)N(C7CCC(=O)NC7=O)C8)CC6)C5)CC4)(NC(=O)c4cc(F)ccc4F)CC3)nc2)c2c(C#N)cnn2c1` (centres unmarked) [Example 71, N-(1-(5-(3-cyano-6-ethoxypyrazolo[1,5-a]pyridin-4-yl)pyridin-2-yl)-4-((4-(3-(4-(2-(2,6-dioxopiperidin-3-yl)-3-oxoisoindolin-5-yl)piperidin-1-yl)azetidin-1-yl)piperidin-1-yl)methyl)piperidin-4-yl)-2,5-difluorobenzamide], the Dmax is above 90% and the DC50 is below 2 nM.

As to `CCOc1cc(-c2ccc(N3CCC(COCc4cn(CCCCCCN5CCN(c6ccc7c(c6)CN(C6CCC(=O)NC6=O)C7=O)CC5)nn4)(NC(=O)c4cc(F)ccc4F)CC3)nc2)c2c(C#N)cnn2c1` (centres unmarked) [Example 47, N-[1-[5-(3-cyano-6-ethoxy-pyrazolo[1,5-a]pyridin-4-yl)-2-pyridyl]-4-[[1-[6-[4-[2-(2,6-dioxo-3-piperidyl)-1-oxo-isoindolin-5-yl]piperazin-1-yl]hexyl]triazol-4-yl]methoxymethyl]-4-piperidyl]-2,5-difluoro-benzamide], the Dmax is above 90% and the DC50 was 2 to 10 nM.

As to `CCOc1cc(-c2ccc(N3CCC(CN4CCN(C(=O)CCCCCCNc5ccc(C6CCC(=O)NC6=O)cc5)CC4)(NC(=O)c4cc(F)ccc4F)CC3)nc2)c2c(C#N)cnn2c1` (centres unmarked) [Example 20, N-[1-(5-{3-cyano-6-ethoxypyrazolo[1,5-a]pyridin-4-yl}pyridin-2-yl)-4-{[4-(7-{[4-(2,6-dioxopiperidin-3-yl)phenyl]amino}heptanoyl)piperazin-1-yl]methyl}piperidin-4-yl]-2,5-difluorobenzamide], the Dmax was above 90% and the DC50 lay within 2 to 10 nM.

For `CCOc1cc(-c2ccc(N3CCC(Cc4ccccc4)(NC(=O)C4CCN(C(=O)CCN5CCC(c6ccc7c(c6)CN(C6CCC(=O)NC6=O)C7=O)CC5)CC4)CC3)nc2)c2c(C#N)cnn2c1` (centres unmarked) [Example 66, N-[4-benzyl-1-(5-{3-cyano-6-ethoxypyrazolo[1,5-a]pyridin-4-yl}pyridin-2-yl)piperidin-4-yl]-1-(3-{4-[2-(2,6-dioxopiperidin-3-yl)-1-oxo-2,3-dihydro-1H-isoindol-5-yl]piperidin-1-yl}propanoyl)piperidine-4-carboxamide], the Dmax lay in the range of 60 to 90% and the DC50 was below 2 nM.

Turning to `CCOc1cc(-c2ccc(N3CCC(CN4CCN(C(=O)CCCCN5CCN(c6ccc7c(c6)CN(C6CCC(=O)NC6=O)C7=O)CC5)CC4)(NC(=O)c4cc(F)ccc4F)CC3)nc2)c2c(C#N)cnn2c1` (centres unmarked) [Example 5, N-(1-(5-(3-cyano-6-ethoxypyrazolo[1,5-a]pyridin-4-yl)pyridin-2-yl)-4-((4-(5-(4-(2-(2,6-dioxopiperidin-3-yl)-1-oxoisoindolin-5-yl)piperazin-1-yl)pentanoyl)piperazin-1-yl)methyl)piperidin-4-yl)-2,5-difluorobenzamide], the Dmax is above 90% and the DC50 lay in the range of 2 to 10 nM.

Take `CCOc1cc(-c2ccc(N3CCC(CN4CCN(C(=O)CCN5CCC6(CC5)CCN(c5ccc7c(c5)CN(C5CCC(=O)NC5=O)C7=O)CC6)CC4)(NC(=O)c4cc(F)ccc4F)CC3)nc2)c2c(C#N)cnn2c1` (centres unmarked) [Example 91, N-[1-(5-{3-cyano-6-ethoxypyrazolo[1,5-a]pyridin-4-yl}pyridin-2-yl)-4-{[4-(3-{9-[2-(2,6-dioxopiperidin-3-yl)-1-oxo-2,3-dihydro-1H-isoindol-5-yl]-3,9-diazaspiro[5.5]undecan-3-yl}propanoyl)piperazin-1-yl]methyl}piperidin-4-yl]-2,5-difluorobenzamide]: the Dmax was 60 to 90% and the DC50 was below 2 nM.

Regarding `CCOc1cc(-c2ccc(N3CCC(CN4CCN(CCC(=O)N5CCC(c6ccc7c(c6)C(=O)N(C6CCC(=O)NC6=O)C7=O)CC5)CC4)(NC(=O)c4cc(F)ccc4F)CC3)nc2)c2c(C#N)cnn2c1` (centres unmarked) [Example 117, N-[1-(5-{3-cyano-6-ethoxypyrazolo[1,5-a]pyridin-4-yl}pyridin-2-yl)-4-{[4-(3-{4-[2-(2,6-dioxopiperidin-3-yl)-1,3-dioxo-2,3-dihydro-1H-isoindol-5-yl]piperidin-1-yl}-3-oxopropyl)piperazin-1-yl]methyl}piperidin-4-yl]-2,5-difluorobenzamide], the Dmax was above 90% and the DC50 was 2 to 10 nM.

In the case of `CCOc1cc(-c2ccc(N3CCC(NC(=O)c4cc(F)ccc4F)(C(=O)NCCCCCCCCCCNc4ccc5c(N6CCC(=O)NC6=O)nn(C)c5c4)CC3)nc2)c2c(C#N)cnn2c1` [Example 153, 1-(5-{3-cyano-6-ethoxypyrazolo[1,5-a]pyridin-4-yl}pyridin-2-yl)-4-(2,5-difluorobenzamido)-N-(10-{[3-(2,4-dioxo-1,3-diazinan-1-yl)-1-methyl-1H-indazol-6-yl]amino}decyl)piperidine-4-carboxamide], the Dmax was above 90% and the DC50 lay within 2 to 10 nM.

Consider `CCOc1cc(-c2ccc(N3CCC(CN4CCN(C(=O)CCCCCCCCNc5cccc(NC6CCC(=O)NC6=O)c5)CC4)(NC(=O)c4cc(F)ccc4F)CC3)nc2)c2c(C#N)cnn2c1` (centres unmarked) [Example 23, N-[1-(5-{3-cyano-6-ethoxypyrazolo[1,5-a]pyridin-4-yl}pyridin-2-yl)-4-({4-[9-({3-[(2,6-dioxopiperidin-3-yl)amino]phenyl}amino)nonanoyl]piperazin-1-yl}methyl)piperidin-4-yl]-2,5-difluorobenzamide], for which the Dmax was above 90% and the DC50 lay within 10 to 100 nM.

Regarding `CCOc1cc(-c2ccc(N3CCC(COCCN4CCN(C(=O)CCN5CCC(c6ccc7c(c6)C(=O)N(C6CCC(=O)NC6=O)C7)CC5)CC4)(NC(=O)c4cc(F)ccc4F)CC3)nc2)c2c(C#N)cnn2c1` (centres unmarked) [Example 32, N-[1-[5-(3-cyano-6-ethoxy-pyrazolo[1,5-a]pyridin-4-yl)-2-pyridyl]-4-[2-[4-[3-[4-[2-(2,6-dioxo-3-piperidyl)-3-oxo-isoindolin-5-yl]-1-piperidyl]propanoyl]piperazin-1-yl]ethoxymethyl]-4-piperidyl]-2,5-difluoro-benzamide], the Dmax was 60 to 90% and the DC50 was 10 to 100 nM.

As to `CCOc1cc(-c2ccc(N3CCC(CN4CCN(CCOCCOCCC(=O)N5CCN(c6ccc7c(c6)CN(C6CCC(=O)NC6=O)C7=O)CC5)CC4)(NC(=O)c4cc(F)ccc4F)CC3)nc2)c2c(C#N)cnn2c1` (centres unmarked) [Example 109, N-[1-(5-{3-cyano-6-ethoxypyrazolo[1,5-a]pyridin-4-yl}pyridin-2-yl)-4-[(4-{2-[2-(3-{4-[2-(2,6-dioxopiperidin-3-yl)-1-oxo-2,3-dihydro-1H-isoindol-5-yl]piperazin-1-yl}-3-oxopropoxy)ethoxy]ethyl}piperazin-1-yl)methyl]piperidin-4-yl]-2,5-difluorobenzamide], the Dmax is 60 to 90% and the DC50 was in the range of 10 to 100 nM.
